The source of these data is patent US20230263800A1, “COMPOSITIONS AND METHODS TO PROMOTE THYMIC FUNCTION” (Fred Hutchinson Cancer Center, priority 2020, published 2023).

“Also recorded” adds a separate entry of the source. Like-named read-outs stand apart in the source and are kept apart here.

The subject of data set [1] is Foxn1 in C9 (cTEC) cells. As to the kind of experiment: Foxn1 expression by qPCR in C9 cells. The class given is cell-based, mouse. As to the method:
(§1) FIGS. 7A, 7B. […] Graphs represent mean±SEM, each dot represents a biologically independent observation (n=3 independent experiments). *, p<0.05; **, p<0.01; ***p<0.001.
(§2) FIGS. 18A-18G. Thymuses were harvested at d0, d1, d2, and d3 after TBI (550 cGy) and (18A) mitochondrial membrane potential, (18B) Reactive oxygen species (ROS) levels, and (18C) glutathione levels were measured in DP thymocytes and cTECs (n=4-7 mice from 1-2 experiments). (18D) Foxn1 expression in FACs-purified cTECs at d0, d4, and d7 after TBI; (18E) Intracellular Ca2+ levels were measured on whole thymus harvested at d0, d2, d4, and d7 post SL-TBI. (18F, 18G) Foxn1 expression levels were measured by qPCR in (18F) C9, and (18G) TE71 cells after treatment with Tunicamycin (5 ug/ml) or Thapsigargan (1 μg/ml). Graphs represent mean+/−SD.
FIGS. 19A, 19B. (19A) C9s were treated with (19A) ATP and P2X7 antagonist or (19B) P2Y2 agonist or antagonist and FOXN1 expression was assessed by qPCR after 20 h. Graphs represent mean+/−SEM.
(§3) Cell cultures. exEC were generated as previously described (Seandel et al., Proc Natl Acad Sci USA. 2008, 105(49):19288-19293). Cells were cultured in presence of ultrapure Zn sulfate monohydrate purchased from Alfa Aesar (Haverhill, Mass. #1113809) or sodium pyrythione (Sigma Aldrich, St. Louis, Mo. #H3261-1G). TC-G 1008 was used in cell cultures at a final concentration of 25 μM. Silencing of the zinc receptor Gpr39 was performed by electroporation using Nucleofector electroporation kit (VPI-1001, Lonza; Program M-003, Nucleofector 2b, Lonza), and the GPR39 siRNA Silencer Select (Thermo, Waltham, Mass.). Mouse C9 (cTEC) and TE-71 (mTEC) cells were kindly provided by A. Farr, University of Washington.
PCR and Microarray. Reverse transcription-PCR was performed with iScript Clear gDNA cDNA synthesis kit (Bio Rad, Hercules, Calif.) on CFX96 (Bio Rad, Hercules, Calif.) with iTaq Universal SYBR Green (Bio Rad). Relative amounts of mRNA were calculated by the comparative AC(t) method or as relative expression. SYBR Green gene expression assays for qPCR, including Bmp4 (Mm00432087_m1), Foxn1 (Mm00433948_m1), beta-actin, Gpr39, Top1 were all purchased from Life Technologies (Carlsbad, Calif.) and Bio Rad (Hercules, Calif.). b-actin: synthesized by IDT, F: 5′-[…]-3′ (SEQ ID NO: 6), R: 5′-[…]-3′ (SEQ ID NO: 7). Top1: synthesized by IDT, sequences provided by PrimerBank, PrimerBank ID 6678399a1. Bmp4: Biorad qMmuCED0046239. Foxn1: Biorad qMmuCED0044924. Microarray data from CD45^− cells was analyzed on day 0, 4 and 7 as previously described (Wertheimer et al., Science Immunology. 2018, 3(19)) (GSE106982) and differential gene expression of Gpr39 was calculated.
A general note: Real-time PCR tracks product formation cycle by cycle.

Data set [2] concerns C57BL/6 mice given sublethal TBI. As to the kind of experiment: Thymic regeneration after sublethal total body irradiation (SL-TBI, 550 cGy). As to conditions: for thymic regeneration (thymus cellularity): day 14. The class given is in vivo, mouse. An excerpt: FIGS. 4A-4G. […] (4A, 4B) 6-8 week-old female C57BL/6 mice were fed a normal or ZD diet for 21 days at which point mice were given a sublethal dose of total body irradiation (TBI, 550 cGy). (4A) Total thymic cellularity at days 7 and 14 after TBI (n=10/treatment/timepoint across two independent experiments). (4B) Total number of CD45-EpCAM^+MHCII^+UEA1^loLy51^hi (cTECs) and CD45^− EpCAM^+MHCII^+UEA1^hi Ly51^lo (mTECs) at days 7 and 14 after TBI (n=10/treatment/timepoint across two independent experiments). (4C) 6-12 week-old female BALB.B mice were fed with normal or ZD diet for 21 days, at which point mice were given a lethal dose of TBI (900cGy) and 10×10^6 T cell-depleted bone marrow (BM) cells from 6-8 week-old C57BL/6. One cohort also received 2×10^6 T cells to induce graft versus host disease (GVHD); thymic cellularity was quantified on day 14 after allogeneic hematopoietic stem cell transplant (allo-HCT, n=5-6/group). (4D) 6-8 week-old female C57BL/6 mice were fed with normal or ZD diet for 21 days at which point mice were given 550 cGy TBI and total thymus cellularity quantified on day 14. […] (4E) Total thymic cellularity. (4F) Total number of cTECs and mTECs. (4G) Total number of Ki-67+ thymic endothelial cells (TECs). […]

Data set [3] deals with Bmp4 in exECs. As to the kind of experiment: BMP4 protein by ELISA in exECs. The format is cell-based, mouse. As to the method:
FIGS. 10A-10F. G-protein coupled receptor 39 (GPR39) expressed by thymic endothelial cells is the central mediator of Zn-centered regeneration. […] Bmp4 expression was measured by qPCR (n=6 combined from two independent experiments). (10B) GPR39 expression across subsets in the thymus by flow cytometry at baseline. […] (10C) Expression of GPR39 on cTECs, mTECs, ECs and fibroblasts at days 0, 4, and 7 after TBI. […] BM P4 was measured by ELISA.
In general terms: In an ELISA, binding on a coated surface is turned into a signal by an enzyme label.

In data set [4] the test system is Bmp4 in endothelial cells (ECs). As to conditions: 300 mg/kg/day ZnSO4 21 days before TBI, ECs sorted at day 7. An excerpt:
(§4) FIGS. 8A-8F. […] (8A) 6-8 week-old female C57BL/6 mice were fed a normal or ZD diet for 21 days at which point mice were given 550 cGy TBI. […] Levels of BMP4 were quantified by enzyme-linked immunoassay (ELISA) at day 10 after TBI (n=5-10/group from one independent experiment). […] Mice were maintained on Zn-supplemented drinking water for the duration of the study. (8B) BMP4 levels measured by ELISA at day 10 (n=9/group combined from three independent experiments). (8C) Endothelial cells (ECs) were fluorescence-activated cell sorting (FACS) purified at day 7 and Bmp4 expression was measured by qPCR (n=6/group combined from two independent experiments). […] Total thymus cellularity was quantified at day 10 after TBI (n=5/group from one independent experiment).
PCR and Microarray. Reverse transcription-PCR was performed with iScript Clear gDNA cDNA synthesis kit (Bio Rad, Hercules, Calif.) on CFX96 (Bio Rad, Hercules, Calif.) with iTaq Universal SYBR Green (Bio Rad). Relative amounts of mRNA were calculated by the comparative AC(t) method or as relative expression. […] Microarray data from CD45^− cells was analyzed on day 0, 4 and 7 as previously described (Wertheimer et al., Science Immunology. 2018, 3(19)) (GSE106982) and differential gene expression of Gpr39 was calculated.

Data set [5] has as its system C9 (cTEC) cells. As to conditions: graded doses of ZnSO4, 24 h. On the procedure:
as §1, §3
(§5) ELISA and Western Blot. Cell culture or tissue lysates were prepared in RIPA buffer (Thermo, Waltham, Mass.) as previously described (Wertheimer et al., Science Immunology. 2018, 3(19)) and normalized by BCA assay (Thermo, Waltham, Mass.). BMP4 levels were quantified by ELISA (LSBio, Seattle, Wash.) and read on a Spark 10M plate reader (Tecan, Switzerland). Cortisol levels were measured with ELISA on peripheral blood (R&D systems, Minneapolis, Minn.).

Data set [6] relates to TE-71 (mTEC) cells. The following applies: TE-71 cells, graded doses of ZnSO4, 24 h. As to the method:
as §1, §3, §5

Data set [7] has as its system Bmp4 in exECs. As to the kind of experiment: Bmp4 expression by qPCR in exECs. The class given is cell-based, mouse. As to conditions: ZnSO4 50 and 100 μM, 24 hours.
Data set [8] relates to mice given TCD allo-HCT from RAG2-GFP donors. As to conditions: ZnSO4 in drinking water, peripheral blood and spleen after HCT, day 53. As to the method: FIGS. 12A-12D. […] (12A). […] (12B) Splenic T cells were analyzed for GFP expression on day 53 (n=4-5/group).
Data set [9] has as its system lineage-negative bone marrow (BM) co-cultured with OP9-DL1 cells. The following applies: ZnSO4 10 μM added from day 0, read at day 30, versus control.
Text: Concatenated flow cytometry plots displaying CD4 and CD8 expression at day 30 (n=5 independent experiments).
To confirm the importance of Zn on T cell maturation, lineage-negative bone marrow (BM) isolated from C57BL/6 mice were co-cultured on the OP9-DLL1 system, which is able to support T cell development in vitro (Schmitt et al., Nat Immunol. 2004, 5(4):410-417; and Holmes et al., Cold Spring Harb Protoc. 2009, 2009(2):pdb prot5156).
OP9-DL1 cells were kindly provided by J. C. Zuniga-Pflucker, University of Toronto and cultured as previously described (Holmes et al., Cold Spring Harb Protoc. 2009, 2009(2):pdb prot5156) using lineage-negative BM (using a lineage depletion kit, Miltenyi Biotech, Germany). Flt-3L and IL-7 were purchased from Peprotech (Rocky Hill, N.J.).
The conditions of data set [10]: 300 mg/kg/day ZnSO4 in drinking water for 21 days, Fluozin-3 and ICP-MS. As to the method:
FIGS. 9A-9G. […] (9A, 9B) 6-8 week-old female C57BL/6 mice were given 550 cGy TBI and levels of Zn were measured by inductively coupled plasma mass spectrometry (ICP-MS). (9A) Total thymic amounts of Zn from both intracellular and extracellular fractions of thymus (n=6/timepoint). (9B) Extracellular Zn was measured only in thymic supernatants and the ratio of extracellular to total thymic Zn was calculated (n=6/timepoint). […] Thymocytes were isolated either before or 48 hours after TBI and co-cultured with exECs. Bmp4 expression was measured by qPCR at 24 hours (n=3-4/group). […] Thymus cellularity was measured at day 28 after TBI (n=4-5/group). (9E) 6-8 week-old female C57BL16 mice were fed a normal or ZD diet for 21 days after which thymocytes were isolated by CD90+ magnetic separation. Intracellular Zn levels were measured by staining with Fluozin-3 and assessed by flow cytometry (n=5/group across two independent experiments).

Data set [11] deals with BMP4.
Text: as §4, §5

Data set [12] concerns Foxn1 in TE-71 (mTEC) cells. Put plainly: Foxn1 expression by qPCR in TE-71 cells. The format is cell-based, mouse. On the procedure: as §2
PCR and Microarray. […] Bmp4: Biorad qMmuCED0046239. Foxn1: Biorad qMmuCED0044924.

Data set [13] deals with ERK1/2. The following applies: exECs stimulated with Zn.
Text: Flow cytometry, multidimensional analyses, and FACS sorting. For flow cytometry and cell sorting, surface antibodies against CD45 (30-F11), CD31 (390 or MEC13.3), CD90.2 (30-H12), TER-119 (TER-119), CD4 (RM4-5 or GK1.5), CD8 (53-6.7), TCRβ (H57-597), CD3 (145-2C11), CD44 (IM7), CD25 (PC 61.5), CD62L (MEL14), MHC-II IA/IE (M5/114.15.2), EpCAM (G8.8), Ly51 (6C3), CD11c (HL3), IL-7Ra (A7R34), CCR6 (140706), CD45.1 (A20), CD45.2 (104), ki-67 (16A8), and PDGFRa (APAS) were purchased from BD Biosciences (Franklin Lakes, N.J.), BioLegend (San Diego, Calif.) or eBioscience (San Diego, Calif.). Ulex europaeus agglutinin 1 (UEA-1), conjugated to FITC or Biotin, was purchased from Vector Laboratories (Burlingame, Calif.). GPR39 conjugated to FITC was purchased from Signalway Antibody (College Park, Md.). Red blood cell lysis was performed with ACK buffer (Thermo Scientific, Waltham, Mass.). Flow cytometry was performed on a Fortessa X50 (BD Biosciences, Franklin Lakes, N.J.) and cells were sorted on an Aria II (BD Biosciences) using FACSDiva (BD Biosciences, Franklin Lakes, N.J.). For intracellular cytokine or phosphoprotein analysis, cells were fixed and permeabilized using Fix Buffer I and Phospho-Perm Buffer III from BD Bioscience (Franklin Lakes, N.J.). Fluozin-3 AM was purchased from Thermo Fisher (Waltham, Mass.). Analysis was performed by FlowJo (Treestar Software, Ashland, Oreg.).

For the molecule `Cc1ccc2c(c1)C=Cc1cc(C)ccc1C2c1cn(Cc2ccc(C(=O)Nc3nn[nH]n3)o2)c(=O)[nH]c1=S` [AR-C 1182925XX], the “effect on P2Y2 agonist-induced Foxn1 expression” value in [1] (C9 cells, P2Y2 antagonist, 20 h) is recorded as “reversed”.
`Nc1ncnc2c1ncn2[C@@H]1O[C@H](COP(=O)(O)OP(=O)(O)OP(=O)(O)O)[C@@H](O)[C@H]1O` [ATP]: the “thymic regeneration (thymus cellularity)” value in data set [2] (ATP by intraperitoneal injection at d3 after SL-TBI (legend: 5 mg/kg bzATP)) was “superior thymic regeneration; also recorded: enhancing thymus cellularity”. Further, in data set [1] (C9 cells, ATP, 20 h), the Foxn1 expression result is “potent inducer of FOXN1”.
Turning to `Nc1[nH]nc2nnc(-c3c(-c4ccccc4)nn4ccccc34)cc12` [FR180204], the BMP4 production entry in data set [3] (ERK inhibitor FR180204 prior to ZnSO4 (100 μM), 24 hours) is recorded as “BMP4 production was abrogated”.
Consider `O=c1ccn([C@@H]2O[C@H](COP(=O)([O-])OP(=O)([O-])OP(=O)([O-])OP(=O)([O-])Oc3ccccc3)[C@@H](O)[C@H]2O)c(=O)[nH]1.[Na+].[Na+].[Na+].[Na+]` [MRS 2768, tetrasodium; [[(2R,3S,4R,5R)-5-(2,4-dioxopyrimidin-1-yl)-3,4-dihydroxyoxolan-2-yl]methoxy-oxidophosphoryl] [oxido-[oxido(phenoxy)phosphoryl]oxyphosphoryl] phosphate], for which the “thymic regeneration (thymus cellularity)” value in [2] (MRS 2768 5 mg/kg IP at day 3 after 550 cGy TBI, 5 mg/kg) is recorded as “superior thymic regeneration; also recorded: enhancing thymus cellularity”. In addition, the cTEC numbers result in data set [2] (MRS 2768 5 mg/kg, d13 following TBI, 5 mg/kg) is recorded as “increased cTEC numbers; also recorded: expanding cTECs”. Besides, the Foxn1 expression result in data set [1] is “increase in Foxn1 expression”.
Take `O=S(=O)([O-])[O-].[Zn+2]` [ZnSO4, zinc sulphate]: the “Bmp4 expression in purified ECs” value in [4] is on record as “increased expression of Bmp4”. Further, the TEC proliferation entry in data set [5] and in data set [6] was “did not show any direct effect” in each case. In data set [7], the “transcription of Bmp4” value was “dose-dependent increase”. In [8], the “GFP+ CD4+ and CD8+ lymphocytes (recent thymic emigrants)” value is “higher levels of GFP+CD4+ and CD8+ lymphocytes”. The “production of DP (CD4+CD8+) cells” value in data set [9] was “more robust production of DP”. In addition, the “intracellular Zn in thymocytes” value in data set [10] was “significantly increased levels of intracellular Zn”. Further, the “BMP4 levels in the thymus” value is given as “increased levels of BMP4” in data set [11] (300 mg/kg/day ZnSO4 21 days before TBI without prior ZD, day 10) and “restored BMP4 levels” in data set [11] (ZD diet 21 days, 550 cGy TBI, 300 mg/kg/day ZnSO4 in drinking water from day 0, day 10). Also, the Foxn1 expression result was “did not show any direct effect” in [12] (TE-71 cells, 100 μM ZnSO4, 24 h) and “did not show any direct effect” in data set [1] (C9 cells, 100 μM ZnSO4, 24 h). Moreover, the “phosphorylation of ERK1/2” value in data set [13] is “led to phosphorylation of ERK1/2”. For the same molecule, the BMP4 protein result in data set [3] (ZnSO4, 48 hours) is recorded as “confirmed at the protein level”.
Take `C/C=C(/C)C(=O)O[C@H]1C(C)=C2[C@H]([C@@H]1OC(=O)CCCCCCC)[C@@](C)(OC(C)=O)C[C@H](OC(=O)CCC)[C@@]1(O)[C@H]2OC(=O)[C@@]1(C)O` [thapsigargan]: the “effect on tunicamycin-induced Foxn1 expression” value is given as “reversed” in data set [12] (TE71 cells, Thapsigargan 1 μg/ml) and “reversed” in data set [1] (C9 cells, Thapsigargan 1 μg/ml).
As for tunicamycin, the Foxn1 expression entry in data set [12] (TE71 cells, Tunicamycin 5 ug/ml) is “induced Foxn1 expression”; in data set [1] (C9 cells, Tunicamycin 5 ug/ml), “induced Foxn1 expression”.
